What was measured:
[1] = pKa of amine lipid by TNS fluorescence; format: physicochemical; settings: probe TNS (6-(p-toluidino)-2-naphthalenesulfonic acid sodium salt), unformulated amine lipid in ethanol, sodium phosphate buffers -9.0
Summary of the method: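 pKa derived from a sigmoidal fit of normalized TNS fluorescence (321 nm excitation, 448 nm emission) versus pH. Lipid from ethanol stock diluted to about 100 μM final in 0.1 M phosphate buffers, pH 4.5–9.0.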

[2] = RNA encapsulation efficiency of LNP (Ribogreen fluorescence assay); format: physicochemical; settings: Table 13; LNP sgRNA:Cas9 mRNA 1:2 w/w, N/P 6.0
Summary of the method: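 LNP samples diluted in 1× TE with or without 0.2% Triton-X 100 for total or free RNA, stained ~10 min at room temperature in the dark with RiboGreen; fluorescence ex 488/em 525 nm against RNA standard curves. Encapsulation efficiency = (Total RNA−Free RNA)/Total RNA.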

[3] = LNP average particle size and polydispersity by dynamic light scattering; format: physicochemical; settings: Table 13; LNP sgRNA:Cas9 mRNA 1:2 w/w, N/P 6.0
Summary of the method: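 LNPs were diluted in PBS to a count rate of about 200-400 kcps and measured by DLS on a Zetasizer. Size is the intensity-weighted Z-average diameter, reported with number-average diameter, and the polydispersity index describes the spread of sizes around the mean.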

TTR in HUH7 cells = experiment: In vitro editing in HUH7 cells, LNP with Cas9 mRNA and sgRNA G000502, NGS; format: cell-based, human; settings: Table 14; 2000 ng RNA per well, cells harvested 6 hours post-transfection, biological duplicate, G000502 target locus
Method: A series of compounds based on Compound 46 that vary by the inclusion of a C4-12 alkyl at the R^3 position of Formula (IA) (as illustrated in FIG. 13A) were tested for in vitro editing. The human hepatocellular carcinoma cell line […] (Japanese Collection of Research Bioresources Cell Bank, Cat. JCRB0403) was cultured in DMEM media supplemented with 10% fetal bovine serum and 1% Penicillin-Streptomycin. Cells were plated at a density of 20,000 cells/well in a 96-well plate 24 hours prior to transfection (˜80% confluent at time of transfection). The LNPs were formulated at a 1:2 w/w ratio of sgRNA and Cas9 mRNA using the cross flow procedure with lipid molar compositions as described in Table 13 at an N/P ratio of 6.0. LNP compositions were analyzed for average particle size, polydispersity (pdi), total RNA content and encapsulation efficiency of RNA as described in Example 115. Analysis of average particle size, polydispersity (PDI), total RNA content and encapsulation efficiency of RNA are shown in Table 13. LNPs were diluted into media, incubated for 5 minutes at 37 C and pipetted onto cells at a dose of 2000 ng RNA per well. Each condition was assayed in biological duplicate. Cells were harvested post-transfection at 6 hours. Genomic DNA was extracted using 50 μL/well BuccalAmp DNA Extraction solution (Epicentre, Cat. QE09050) according to manufacturer's protocol. All DNA samples were subjected to PCR and subsequent NGS analysis for editing at the G000502 target locus, as described above. As shown in Table 14 and FIG. 13B, all compounds tested were efficacious for in vitro editing.

mouse TTR = experiment: Serum TTR ELISA in mice after LNP delivery; format: in vivo
Summary of the method: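 Mouse TTR in serum was quantified by ELISA (samples diluted e.g. 10,000- and/or 2,500-fold) 6–7 days after dosing CD-1 females with LNP, typically 0.1 mpk. Values are reported relative to vehicle-treated controls (%).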

mouse TTR gene = experiment: In vivo editing in mouse liver, LNP with Cas9 mRNA and sgRNA G282, NGS; settings: Table 3; guide G282; CD-1 female mice, 0.1 mpk i.v., liver at 6 or 7 days; Exp. 1, 8, 9, 10
Method: LNPs were prepared using various amine lipids in a 4-component lipid system consisting of an ionizable lipid (e.g. an amine lipid), DSPC, cholesterol and PEG-2k-DMG. In assays for percent liver editing in mice, Cas9 mRNA and chemically modified sgRNA targeting a mouse sequence were formulated in LNPs, at either a 1:1 w/w ratio or a 1:2 w/w ratio.
The lipid components were dissolved in 100% ethanol with the lipid component molar ratios described below. The chemically modified sgRNA and Cas9 mRNA were combined and dissolved in 25 mM citrate, 100 mM NaCl, pH 5.0, resulting in a concentration of total RNA cargo of approximately 0.45 mg/mL. The LNPs were formulated with an N/P ratio of about 6, with the ratio of chemically modified sgRNA: Cas9 mRNA at either a 1:1 or 1:2 w/w ratio as described below.
CD-1 female mice, ranging from 6-10 weeks of age were used in each study. Animals were weighed and grouped according to body weight for preparing dosing solutions based on group average weight. LNPs were dosed via the lateral tail vein in a volume of 0.2 mL per animal (approximately 10 mL per kilogram body weight). The animals were periodically observed for adverse effects for at least 24 hours post dose.
For studies measuring in vivo editing in liver, CD-1 female mice were dosed at 0.1 mpk unless otherwise noted. Animals were euthanized at 6 or 7 days by exsanguinationvia cardiac puncture under isoflourane anesthesia. Liver tissue was collected from each animal for DNA extraction and analysis. Blood was collected into serum separator tubes or into tubes containing buffered sodium citrate for plasma as described herein. Cohorts of mice were measured for editing by Next-Generation Sequencing (NGS).
In brief, to quantitatively determine the efficiency of editing at the target location in the genome, genomic DNA was isolated and deep sequencing was utilized to identify the presence of insertions and deletions introduced by gene editing.
PCR primers were designed around the target site (e.g., B2M), and the genomic area of interest was amplified. Additional PCR was performed according to the manufacturer's protocols (Illumina) to add the necessary chemistry for sequencing. The amplicons were sequenced on an Illumina MiSeq instrument. The reads were aligned to the relevant reference genome (e.g., GRCm38) after eliminating those having low quality scores. The resulting files containing the reads were mapped to the reference genome (BAM files), where reads that overlapped the target region of interest were selected and the number of wild type reads versus the number of reads which contain an insertion, substitution, or deletion was calculated.
The editing percentage (e.g., the “editing efficiency” or “percent editing”) is defined as the total number of sequence reads with insertions or deletions over the total number of sequence reads, including wild type.
We assessed in vivo editing efficiency for materials delivered with formulations including various amine lipid compounds. Editing was measured using either G282 (SEQ ID No: 1) which targets the mouse TTR gene or G650 (SEQ ID No. 2) which targets the mouse B2M gene. Lipids described above were assessed for efficacy through in vivo editing experiments. LNPs were formulated at a 1:1 w/w ratio of sgRNA to Cas9 mRNA, and at an N/P ratio of about 6. Molar concentrations of lipids in the lipid component of the LNPs are expressed as mol % amine lipid/DSPC/cholesterol/PEG-2k-DMG, e.g. 50/10/38.5/1.5. The final LNPs were characterized to determine the encapsulation efficiency, polydispersity index, and average particle size according to the analytical methods provided above. Analysis of average particle size, polydispersity (PDI), total RNA content and encapsulation efficiency of RNA are shown in Table 2.
To assess whether the editing was dose responsive, experiments were performed in vivo at various LNP dose levels. […]

SMILES: CCCCC/C=C\C/C=C\CCCCCCCC(=O)OCC(COC(=O)CCCCCCC/C=C\C/C=C\CCCCC)OC(=O)CCC(CCCCCCCCCCCC)OC(=O)NCCN1CCCC1 (centres unmarked) [Compound 46, 2-((4-(((2-(pyrrolidin-1l-yl)ethyl)carbamoyl)oxy)hexadecanoyl)oxy)propane-1,3-diyl (9Z,9′Z,12Z,12′Z)-bis(octadeca-9,12-dienoate)]
- pKa [1]: 6.16
- % E [2]: 99%
- Number Average [nm] [3]: 76.76 nm
- PDI [3]: 0.003
- Z-Ave Size (nm) [3]: 94.54 nm
- Editing (TTR in HUH7 cells): 63.7%

SMILES: CCCCC/C=C\C/C=C\CCCCCCCC(=O)OCC(COC(=O)CCCCCCC/C=C\C/C=C\CCCCC)OC(=O)CCC(CCCCCCC)OC(=O)NCCN1CCCC1 (centres unmarked) [Compound 76, 2-((4-(((2-(pyrrolidin-1l-yl)ethyl)carbamoyl)oxy)undecanoyl)oxy)propane-1,3-diyl (9Z,9′Z,12Z,12′Z)-bis(octadeca-9,12-dienoate)]
- pKa [1]: 6.74
- Serum TTR % TSS (mouse TTR; mouse serum, relative to TSS control of same experiment, dose 0.03 mpk): 69.72 % TSS
- Serum TTR % TSS (mouse TTR; mouse serum, relative to TSS control of same experiment, dose 0.1 mpk): 12.79 % TSS
- Editing (TTR in HUH7 cells): 61.2%

SMILES: CCCCC/C=C\C/C=C\CCCCCCCC(=O)OCC(COC(=O)CCCCCCC/C=C\C/C=C\CCCCC)OC(=O)CCC(CCCC)OC(=O)NCCN1CCCC1 (centres unmarked) [Compound 85, 2-((4-(((2-(pyrrolidin-1-yl)ethyl)carbamoyl)oxy)octanoyl)oxy)propane-1,3-diyl (9Z,9′Z,12Z,12′Z)-bis(octadeca-9,12-dienoate)]
- pKa [1]: 7.02
- % E [2]: 96%
- Number Average [nm] [3]: 93.05 nm
- PDI [3]: 0.045
- Z-Ave Size (nm) [3]: 117.1 nm
- Editing (TTR in HUH7 cells): 66.4%

SMILES: CCCCC/C=C\C/C=C\CCCCCCCC(=O)OCC(COC(=O)CCCCCCC/C=C\C/C=C\CCCCC)OC(=O)NCCN(C)CC [Compound 114, 2-(((2-(ethyl(methyl)amino)ethyl)carbamoyl)oxy)propane-1,3-diyl (9Z,9′Z,12Z,12′Z)-bis(octadeca-9,12-dienoate), reference compound]
- pKa [1]: 6.93
- Serum TTR (mouse TTR; Table 3, guide G282, CD-1 female mice, 0.1 mpk i.v., Exp. 1, 8, 9, 10): 637 µg/mL
- Serum TTR % TSS (mouse TTR; Table 3, guide G282, CD-1 female mice, 0.1 mpk i.v., percentage of vehicle control (TSS)): 78% TSS
- Editing Mean % Indel (mouse TTR gene): 0.8%
